Measured values as given in paper PMC11864979, “First-in-class ultralong-target-residence-time p38α inhibitors as a mitosis-targeted therapy for colorectal cancer” (Nature Cancer, 2025).
Like-named read-outs stand apart in the source and are kept apart here.

Assays:
Experiment in all cases: selectivity profiling in a panel of 340 wild-type kinases (Reaction Biology Europe)
Type in all cases: binding
340 wild-type kinases [1] = target: T1, 340 wild-type kinases (Homo sapiens, UniProt P57078)
T1 construct: purchased Reaction Biology Europe
T1 sequence (P57078 1-832): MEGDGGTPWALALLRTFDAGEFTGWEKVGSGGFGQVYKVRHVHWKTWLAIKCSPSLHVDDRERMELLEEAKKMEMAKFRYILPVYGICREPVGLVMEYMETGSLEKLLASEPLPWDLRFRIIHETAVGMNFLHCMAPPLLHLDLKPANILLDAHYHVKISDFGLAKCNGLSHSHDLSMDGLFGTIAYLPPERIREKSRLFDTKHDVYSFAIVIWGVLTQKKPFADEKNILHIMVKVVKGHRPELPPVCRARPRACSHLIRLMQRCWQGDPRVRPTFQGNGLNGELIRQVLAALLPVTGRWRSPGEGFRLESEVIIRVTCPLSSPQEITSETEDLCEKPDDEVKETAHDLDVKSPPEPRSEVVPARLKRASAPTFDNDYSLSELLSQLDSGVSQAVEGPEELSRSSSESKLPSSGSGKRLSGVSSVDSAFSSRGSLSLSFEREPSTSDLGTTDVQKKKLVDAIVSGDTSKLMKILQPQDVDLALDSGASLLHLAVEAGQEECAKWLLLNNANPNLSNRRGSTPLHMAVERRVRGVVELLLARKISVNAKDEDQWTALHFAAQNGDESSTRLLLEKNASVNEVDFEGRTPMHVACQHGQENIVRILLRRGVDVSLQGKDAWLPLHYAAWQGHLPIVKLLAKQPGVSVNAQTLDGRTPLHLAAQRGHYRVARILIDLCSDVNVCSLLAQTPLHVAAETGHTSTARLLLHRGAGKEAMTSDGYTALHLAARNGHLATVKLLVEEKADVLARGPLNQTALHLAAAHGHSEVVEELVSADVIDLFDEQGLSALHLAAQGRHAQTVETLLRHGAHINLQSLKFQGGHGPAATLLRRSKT

340 wild-type kinases [2] = target: T2, 340 wild-type kinases (Homo sapiens, UniProt Q9P286)
T2 construct: purchased Reaction Biology Europe

340 wild-type kinases [3] = target: T3, 340 wild-type kinases (Homo sapiens, UniProt P07947)
T3 construct: purchased Reaction Biology Europe

340 wild-type kinases [4] = target: T4, 340 wild-type kinases (Homo sapiens, UniProt Q9H093)
T4 construct: purchased Reaction Biology Europe
T4 sequence (Q9H093 1-628): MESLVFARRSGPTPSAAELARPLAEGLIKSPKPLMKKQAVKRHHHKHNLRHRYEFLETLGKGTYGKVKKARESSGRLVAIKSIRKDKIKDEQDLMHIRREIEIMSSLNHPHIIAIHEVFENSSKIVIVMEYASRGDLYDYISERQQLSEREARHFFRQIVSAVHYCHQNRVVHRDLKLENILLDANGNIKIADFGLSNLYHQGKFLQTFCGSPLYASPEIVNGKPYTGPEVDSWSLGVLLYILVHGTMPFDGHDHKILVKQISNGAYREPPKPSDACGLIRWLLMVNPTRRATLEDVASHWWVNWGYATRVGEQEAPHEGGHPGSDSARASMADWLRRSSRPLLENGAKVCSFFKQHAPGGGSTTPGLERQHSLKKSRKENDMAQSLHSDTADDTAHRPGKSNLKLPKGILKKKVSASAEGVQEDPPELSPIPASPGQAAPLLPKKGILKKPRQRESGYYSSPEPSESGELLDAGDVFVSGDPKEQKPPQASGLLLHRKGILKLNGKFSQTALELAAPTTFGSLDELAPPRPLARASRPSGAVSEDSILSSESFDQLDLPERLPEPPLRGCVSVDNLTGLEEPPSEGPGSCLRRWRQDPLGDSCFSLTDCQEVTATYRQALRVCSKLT

340 wild-type kinases [5] = target: T5, 340 wild-type kinases (Homo sapiens, UniProt P48729)
T5 construct: purchased Reaction Biology Europe

340 wild-type kinases [6] = target: T6, 340 wild-type kinases (Homo sapiens, UniProt Q8TD19)
T6 construct: purchased Reaction Biology Europe
T6 sequence (Q8TD19 1-979): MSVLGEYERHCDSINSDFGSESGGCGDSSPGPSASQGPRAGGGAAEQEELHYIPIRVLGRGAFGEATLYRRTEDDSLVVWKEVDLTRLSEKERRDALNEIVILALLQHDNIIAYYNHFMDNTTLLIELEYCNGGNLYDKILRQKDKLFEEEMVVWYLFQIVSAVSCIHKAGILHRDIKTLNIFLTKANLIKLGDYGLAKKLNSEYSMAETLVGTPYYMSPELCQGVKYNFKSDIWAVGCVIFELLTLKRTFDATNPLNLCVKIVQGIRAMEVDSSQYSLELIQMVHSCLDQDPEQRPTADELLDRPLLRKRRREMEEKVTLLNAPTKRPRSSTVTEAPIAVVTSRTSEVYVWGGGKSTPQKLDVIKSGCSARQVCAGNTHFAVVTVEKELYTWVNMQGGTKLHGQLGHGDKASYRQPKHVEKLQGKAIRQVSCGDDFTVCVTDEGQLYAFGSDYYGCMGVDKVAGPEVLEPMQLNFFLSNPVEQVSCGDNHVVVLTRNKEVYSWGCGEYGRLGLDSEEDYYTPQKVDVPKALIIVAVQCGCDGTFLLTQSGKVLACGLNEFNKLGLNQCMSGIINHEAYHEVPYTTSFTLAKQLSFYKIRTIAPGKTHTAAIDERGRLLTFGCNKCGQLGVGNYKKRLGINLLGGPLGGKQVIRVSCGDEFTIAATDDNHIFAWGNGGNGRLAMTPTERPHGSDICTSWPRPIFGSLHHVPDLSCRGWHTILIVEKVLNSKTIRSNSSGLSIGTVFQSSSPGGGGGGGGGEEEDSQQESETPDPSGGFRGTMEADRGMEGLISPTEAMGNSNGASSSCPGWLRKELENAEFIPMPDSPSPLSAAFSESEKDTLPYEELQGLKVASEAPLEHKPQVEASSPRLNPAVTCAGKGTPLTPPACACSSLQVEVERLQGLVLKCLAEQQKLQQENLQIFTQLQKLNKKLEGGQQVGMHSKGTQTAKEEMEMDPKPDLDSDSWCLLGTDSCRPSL

T5 sequence (P48729 whole entry): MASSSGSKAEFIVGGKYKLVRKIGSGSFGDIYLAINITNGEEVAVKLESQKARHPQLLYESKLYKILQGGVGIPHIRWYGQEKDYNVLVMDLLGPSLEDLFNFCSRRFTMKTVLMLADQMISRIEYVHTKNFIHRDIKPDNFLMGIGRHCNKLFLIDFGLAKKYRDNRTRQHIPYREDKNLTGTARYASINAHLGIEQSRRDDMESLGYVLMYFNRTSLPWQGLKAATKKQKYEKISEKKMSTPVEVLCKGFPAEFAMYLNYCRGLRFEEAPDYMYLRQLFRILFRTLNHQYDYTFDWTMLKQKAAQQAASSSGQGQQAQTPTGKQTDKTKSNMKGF
T2 sequence (Q9P286 whole entry): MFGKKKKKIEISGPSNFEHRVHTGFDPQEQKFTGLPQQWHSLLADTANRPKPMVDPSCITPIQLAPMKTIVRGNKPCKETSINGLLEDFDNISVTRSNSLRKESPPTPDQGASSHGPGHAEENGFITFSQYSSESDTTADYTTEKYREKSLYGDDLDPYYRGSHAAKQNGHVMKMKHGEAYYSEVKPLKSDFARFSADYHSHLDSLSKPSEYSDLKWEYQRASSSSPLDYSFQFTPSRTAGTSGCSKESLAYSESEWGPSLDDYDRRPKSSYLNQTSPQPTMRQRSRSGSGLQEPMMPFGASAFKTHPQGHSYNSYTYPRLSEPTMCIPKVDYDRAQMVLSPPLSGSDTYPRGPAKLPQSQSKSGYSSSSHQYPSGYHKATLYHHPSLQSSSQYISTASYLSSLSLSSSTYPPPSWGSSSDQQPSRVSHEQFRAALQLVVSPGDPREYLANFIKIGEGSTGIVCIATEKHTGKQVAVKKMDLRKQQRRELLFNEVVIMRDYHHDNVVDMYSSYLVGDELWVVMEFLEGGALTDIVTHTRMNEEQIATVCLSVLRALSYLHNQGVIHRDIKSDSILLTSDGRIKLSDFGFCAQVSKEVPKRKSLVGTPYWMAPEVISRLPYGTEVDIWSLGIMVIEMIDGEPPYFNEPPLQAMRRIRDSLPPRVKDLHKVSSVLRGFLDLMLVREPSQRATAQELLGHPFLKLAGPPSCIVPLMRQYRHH
T3 sequence (P07947 whole entry): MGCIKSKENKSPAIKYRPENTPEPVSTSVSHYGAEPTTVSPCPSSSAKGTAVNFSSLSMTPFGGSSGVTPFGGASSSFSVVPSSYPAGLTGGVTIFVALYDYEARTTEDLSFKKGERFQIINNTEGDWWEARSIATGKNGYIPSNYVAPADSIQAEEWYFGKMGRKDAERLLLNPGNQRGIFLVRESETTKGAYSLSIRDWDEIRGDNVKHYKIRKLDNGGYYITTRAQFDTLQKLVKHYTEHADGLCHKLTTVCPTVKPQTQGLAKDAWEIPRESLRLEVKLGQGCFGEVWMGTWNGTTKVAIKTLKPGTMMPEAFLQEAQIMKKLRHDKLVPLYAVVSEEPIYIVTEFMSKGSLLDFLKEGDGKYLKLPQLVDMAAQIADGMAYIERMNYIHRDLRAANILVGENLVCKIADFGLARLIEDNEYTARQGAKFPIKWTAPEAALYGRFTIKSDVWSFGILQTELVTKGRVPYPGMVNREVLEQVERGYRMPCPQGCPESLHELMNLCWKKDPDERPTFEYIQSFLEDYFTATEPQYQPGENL

With `CNC(=O)c1ccc2c(c1)C(=O)c1ccc(Nc3ccc(F)c(NC(=O)C4CC4)c3)cc1CC2` [Compound 2015] the remaining activity at 0.2 µM (340 wild-type kinases [1]; 0.2 µM 2015, read-out: RIPK4 residual activity) was 104%, the remaining activity at 1 µM (340 wild-type kinases [1]; 1 µM 2015, read-out: RIPK4 residual activity) was 98.2% and the remaining activity at 0.2 µM (340 wild-type kinases [1]; RIPK4, 0.2 µM, read-out: residual activity) was 104%. It also gave a remaining activity at 1 µM (340 wild-type kinases [1]; RIPK4, 1 µM, read-out: residual activity) of 98.2%, a remaining activity at 0.2 µM (340 wild-type kinases [2]; 0.2 µM 2015, read-out: PAK7 residual activity) of 97.1% and a remaining activity at 1 µM (340 wild-type kinases [2]; 1 µM 2015, read-out: PAK7 residual activity) of 84.3%. For the same molecule, the remaining activity at 0.2 µM (340 wild-type kinases [2]; PAK7, 0.2 µM, read-out: residual activity) was 97.1%, the remaining activity at 1 µM (340 wild-type kinases [2]; PAK7, 1 µM, read-out: residual activity) was 84.3% and the remaining activity at 0.2 µM (340 wild-type kinases [3]; 0.2 µM 2015, read-out: YES residual activity) was 102%. The remaining activity at 1 µM (340 wild-type kinases [3]; 1 µM 2015, read-out: YES residual activity) was 105%, the remaining activity at 0.2 µM (340 wild-type kinases [3]; YES, 0.2 µM, read-out: residual activity) was 102% and the remaining activity at 1 µM (340 wild-type kinases [3]; YES, 1 µM, read-out: residual activity) was 105%. It also gave a remaining activity at 0.2 µM (340 wild-type kinases [4]; 0.2 µM 2015, read-out: SNARK residual activity) of 97%, a remaining activity at 1 µM (340 wild-type kinases [4]; 1 µM 2015, read-out: SNARK residual activity) of 92.5% and a remaining activity at 0.2 µM (340 wild-type kinases [4]; SNARK, 0.2 µM, read-out: residual activity) of 97%. For the same molecule, the remaining activity at 1 µM (340 wild-type kinases [4]; SNARK, 1 µM, read-out: residual activity) was 92.5%, the remaining activity at 0.2 µM (340 wild-type kinases [5]; 0.2 µM 2015, read-out: CK1alpha1 residual activity) was 98.6% and the remaining activity at 0.2 µM (340 wild-type kinases [5]; CK1alpha1, 0.2 µM, read-out: residual activity) was 98.6%. It also gave a remaining activity at 1 µM (340 wild-type kinases [5]; CK1alpha1, 1 µM, read-out: residual activity) of 94.9%, a remaining activity at 0.2 µM (340 wild-type kinases [6]; 0.2 µM 2015, read-out: NEK9 residual activity) of 96.5% and a remaining activity at 1 µM (340 wild-type kinases [6]; 1 µM 2015, read-out: NEK9 residual activity) of 93%. The remaining activity at 0.2 µM (340 wild-type kinases [6]; NEK9, 0.2 µM, read-out: residual activity) was 96.5% and the remaining activity at 1 µM (340 wild-type kinases [6]; NEK9, 1 µM, read-out: residual activity) was 93%.
